The source made the active and inactive calls. No cut-off for these calls is given here.
Columns and labels:
Lymphocyte = assay: Inhibition of T cell activation in human peripheral blood lymphocytes by mixed lymphocyte reaction; type: functional, cell-based
Blood [1] = assay: Inhibition of LPS-induced TNFalpha production in human whole blood by ELISA; type: functional, tissue-based
[2] = target: Tyrosine-protein kinase Lck (Homo sapiens, UniProt P06239)
Description: Inhibition of Lck by HTRF assay

[3] = Tmax in Sprague-Dawley rat at 2 mg/kg; type: ADME, organism-based; design: dose 2 mg/kg; settings: in vivo
[4] = target: Mitogen-activated protein kinase 14 (Homo sapiens, UniProt Q16539); assay: Inhibition of p38alpha by HTRF assay
[5] = Clearance in Sprague-Dawley rat at 0.5 mg/kg, iv; type: ADME, organism-based; design: dose 0.5 mg/kg, route intravenous; settings: in vivo
Blood [6] = assay: Inhibition of anti-CD3-induced IL2 production in human whole blood by ELISA; type: functional, tissue-based
[7] = Volume of distribution at steady state in Sprague-Dawley rat at 0.5 mg/kg, iv; type: ADME, organism-based; design: dose 0.5 mg/kg, route intravenous; settings: in vivo, read-out: Vdss
[8] = target: Vascular endothelial growth factor receptor 2 (Homo sapiens, UniProt P35968); assay: Inhibition of KDR by HTRF assay
[9] = Half life in Sprague-Dawley rat at 0.5 mg/kg, iv; type: ADME, organism-based; design: dose 0.5 mg/kg, route intravenous; settings: in vivo
Angiopoietin-1 receptor = Angiopoietin-1 receptor (Homo sapiens, UniProt Q02763); assay: Inhibition of Tie2 by HTRF assay
[10] = Cmax in Sprague-Dawley rat at 2 mg/kg, po; type: ADME, organism-based; design: dose 2 mg/kg, route oral; settings: in vivo
[11] = AUC (0 to infinity) in Sprague-Dawley rat at 2 mg/kg, po; type: ADME, organism-based; design: time infinity, dose 2 mg/kg, route oral; settings: plasma
[12] = target: T1, Tyrosine-protein kinase JAK3 (Homo sapiens, UniProt P52333); assay: Inhibition of Jak3 by HTRF assay
T1 sequence (P52333 whole entry): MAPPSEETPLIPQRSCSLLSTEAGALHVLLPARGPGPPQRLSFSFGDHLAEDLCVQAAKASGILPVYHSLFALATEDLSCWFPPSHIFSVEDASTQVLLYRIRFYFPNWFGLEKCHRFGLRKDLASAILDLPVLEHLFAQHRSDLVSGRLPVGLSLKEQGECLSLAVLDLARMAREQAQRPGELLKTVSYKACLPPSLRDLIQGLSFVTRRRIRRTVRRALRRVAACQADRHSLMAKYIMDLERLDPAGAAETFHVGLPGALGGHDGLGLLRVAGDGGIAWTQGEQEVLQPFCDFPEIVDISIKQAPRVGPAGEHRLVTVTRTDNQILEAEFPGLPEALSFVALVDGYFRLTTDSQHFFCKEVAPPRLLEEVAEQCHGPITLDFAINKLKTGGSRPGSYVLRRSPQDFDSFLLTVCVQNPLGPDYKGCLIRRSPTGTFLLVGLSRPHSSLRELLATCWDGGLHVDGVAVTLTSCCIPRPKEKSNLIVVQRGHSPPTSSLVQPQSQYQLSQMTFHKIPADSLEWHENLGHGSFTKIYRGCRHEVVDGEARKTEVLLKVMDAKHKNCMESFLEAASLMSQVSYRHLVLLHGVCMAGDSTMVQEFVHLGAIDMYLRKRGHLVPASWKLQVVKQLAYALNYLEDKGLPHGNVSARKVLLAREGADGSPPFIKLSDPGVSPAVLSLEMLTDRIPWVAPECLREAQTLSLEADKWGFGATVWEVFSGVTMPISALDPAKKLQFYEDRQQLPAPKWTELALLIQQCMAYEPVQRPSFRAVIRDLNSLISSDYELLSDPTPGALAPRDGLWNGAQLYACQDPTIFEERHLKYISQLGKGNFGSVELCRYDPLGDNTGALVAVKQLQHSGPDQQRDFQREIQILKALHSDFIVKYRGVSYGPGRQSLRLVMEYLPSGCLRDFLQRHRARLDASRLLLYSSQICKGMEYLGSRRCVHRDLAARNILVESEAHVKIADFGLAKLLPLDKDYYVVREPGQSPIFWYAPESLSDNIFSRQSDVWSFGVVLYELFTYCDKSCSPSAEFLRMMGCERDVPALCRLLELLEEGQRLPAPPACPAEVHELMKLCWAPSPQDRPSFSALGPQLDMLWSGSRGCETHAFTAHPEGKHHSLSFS

[13] = Oral bioavailability in Sprague-Dawley rat at 2 mg/kg; type: ADME, organism-based; settings: in vivo
[14] = Protein binding in rat plasma; type: ADME, cell-free; settings: read-out: PB (converted)
[15] = Protein binding in mouse plasma; type: ADME, cell-free; settings: read-out: PB (converted)
Mus musculus [16] = species on record: Mus musculus; assay: Inhibition of anti-CD3-induced IL2 production in BALB/c mouse; type: functional
Mus musculus [17] = assay: Plasma concentration in BALB/c mouse at 100 mg/kg, po; type: ADME, organism-based; design: dose 100 mg/kg, route oral; settings: in vivo
[18] = target: Tyrosine-protein kinase ITK/TSK (Homo sapiens, UniProt Q08881); assay: Inhibition of Itk by HTRF assay
[19] = Inhibition of Aurora1 by HTRF assay
[20] = target: Tyrosine-protein kinase SYK (Homo sapiens, UniProt P43405); assay: Inhibition of Syk by HTRF assay
Mus musculus [21] = assay: Inhibition of anti-CD3-induced IL2 production in BALB/c mouse at 30 mg/kg, po by ELISA relative to control; type: functional
[22] = target: Tyrosine-protein kinase ABL1 (Homo sapiens, UniProt P00519); assay: Inhibition of Abl by HTRF assay
[23] = target: Serine/threonine-protein kinase PAK 2 (Homo sapiens, UniProt Q13177); assay: Inhibition of PAK2 by HTRF assay
[24] = target: Tyrosine-protein kinase Lyn (Homo sapiens, UniProt P07948); assay: Inhibition of Lyn by HTRF assay
[25] = target: Ribosomal protein S6 kinase beta-1 (Homo sapiens, UniProt P23443); assay: Inhibition of P70S6K by HTRF assay
[26] = target: Serine/threonine-protein kinase pim-1 (Homo sapiens, UniProt P11309); assay: Inhibition of PIM1 by HTRF assay
[27] = target: Macrophage colony-stimulating factor 1 receptor (Homo sapiens, UniProt P07333); assay: Inhibition of cFMS by HTRF assay
[28] = target: Macrophage-stimulating protein receptor (Homo sapiens, UniProt Q04912); assay: Inhibition of RON by HTRF assay
Jurkat = assay: Inhibition of IL2 production in human Jurkat cells stimulated with phorbol 12-myristyl 13-acetate in presence of calcium ionophore; type: functional, cell-based
[29] = Inhibition of Aurora2 by HTRF assay
Mus musculus [30] = assay: Plasma concentration in BALB/c mouse at 30 mg/kg, po; type: ADME, organism-based; design: dose 30 mg/kg, route oral; settings: in vivo
Mus musculus [31] = assay: Plasma concentration in BALB/c mouse at 10 mg/kg, po; type: ADME, organism-based; design: dose 10 mg/kg, route oral; settings: in vivo
[32] = Inhibition of PKAalpha by HTRF assay
[33] = target: Proto-oncogene tyrosine-protein kinase Src (Homo sapiens, UniProt P12931); assay: Inhibition of Src by HTRF assay
Plasma = assay: Unbound EC50 of ligand in mouse plasma
[34] = target: High affinity nerve growth factor receptor (Homo sapiens, UniProt P04629); assay: Inhibition of TrkA by HTRF assay
[35] = Inhibition of IRK by HTRF assay
Mus musculus [36] = assay: Inhibition of anti-CD3-induced IL2 production in orally dosed BALB/c mouse by ELISA; type: functional; settings: po
[37] = Inhibition of PKBalpha by HTRF assay
[38] = target: Mitogen-activated protein kinase 3 (Homo sapiens, UniProt P27361); assay: Inhibition of ERK1 by HTRF assay
Mus musculus [39] = assay: Inhibition of anti-CD3-induced IL2 production in BALB/c mouse at 10 mg/kg, po by ELISA relative to control; type: functional
[40] = target: Tyrosine-protein kinase Fyn (Homo sapiens, UniProt P06241); assay: Inhibition of Fyn by HTRF assay
[41] = target: Ribosomal protein S6 kinase alpha-5 (Homo sapiens, UniProt O75582); assay: Inhibition of MSK1 by HTRF assay
Mus musculus [42] = assay: Inhibition of anti-CD3-induced IL2 production in BALB/c mouse at 100 mg/kg, po by ELISA relative to control; type: functional
[43] = target: Mitogen-activated protein kinase 9 (Homo sapiens, UniProt P45984); assay: Inhibition of JNK2 by HTRF assay

Chain of Mitogen-activated protein kinase 14 (Q16539 whole entry): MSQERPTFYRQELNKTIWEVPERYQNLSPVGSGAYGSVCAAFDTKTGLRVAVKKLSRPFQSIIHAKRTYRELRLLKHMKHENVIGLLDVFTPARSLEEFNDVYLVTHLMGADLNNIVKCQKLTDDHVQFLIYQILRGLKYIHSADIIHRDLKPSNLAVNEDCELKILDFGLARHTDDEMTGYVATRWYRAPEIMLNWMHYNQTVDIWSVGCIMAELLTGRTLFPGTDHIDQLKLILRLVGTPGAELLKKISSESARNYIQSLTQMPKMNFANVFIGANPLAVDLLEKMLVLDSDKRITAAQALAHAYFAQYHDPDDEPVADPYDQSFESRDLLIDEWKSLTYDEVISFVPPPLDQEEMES
Chain of Vascular endothelial growth factor receptor 2 (P35968 whole entry): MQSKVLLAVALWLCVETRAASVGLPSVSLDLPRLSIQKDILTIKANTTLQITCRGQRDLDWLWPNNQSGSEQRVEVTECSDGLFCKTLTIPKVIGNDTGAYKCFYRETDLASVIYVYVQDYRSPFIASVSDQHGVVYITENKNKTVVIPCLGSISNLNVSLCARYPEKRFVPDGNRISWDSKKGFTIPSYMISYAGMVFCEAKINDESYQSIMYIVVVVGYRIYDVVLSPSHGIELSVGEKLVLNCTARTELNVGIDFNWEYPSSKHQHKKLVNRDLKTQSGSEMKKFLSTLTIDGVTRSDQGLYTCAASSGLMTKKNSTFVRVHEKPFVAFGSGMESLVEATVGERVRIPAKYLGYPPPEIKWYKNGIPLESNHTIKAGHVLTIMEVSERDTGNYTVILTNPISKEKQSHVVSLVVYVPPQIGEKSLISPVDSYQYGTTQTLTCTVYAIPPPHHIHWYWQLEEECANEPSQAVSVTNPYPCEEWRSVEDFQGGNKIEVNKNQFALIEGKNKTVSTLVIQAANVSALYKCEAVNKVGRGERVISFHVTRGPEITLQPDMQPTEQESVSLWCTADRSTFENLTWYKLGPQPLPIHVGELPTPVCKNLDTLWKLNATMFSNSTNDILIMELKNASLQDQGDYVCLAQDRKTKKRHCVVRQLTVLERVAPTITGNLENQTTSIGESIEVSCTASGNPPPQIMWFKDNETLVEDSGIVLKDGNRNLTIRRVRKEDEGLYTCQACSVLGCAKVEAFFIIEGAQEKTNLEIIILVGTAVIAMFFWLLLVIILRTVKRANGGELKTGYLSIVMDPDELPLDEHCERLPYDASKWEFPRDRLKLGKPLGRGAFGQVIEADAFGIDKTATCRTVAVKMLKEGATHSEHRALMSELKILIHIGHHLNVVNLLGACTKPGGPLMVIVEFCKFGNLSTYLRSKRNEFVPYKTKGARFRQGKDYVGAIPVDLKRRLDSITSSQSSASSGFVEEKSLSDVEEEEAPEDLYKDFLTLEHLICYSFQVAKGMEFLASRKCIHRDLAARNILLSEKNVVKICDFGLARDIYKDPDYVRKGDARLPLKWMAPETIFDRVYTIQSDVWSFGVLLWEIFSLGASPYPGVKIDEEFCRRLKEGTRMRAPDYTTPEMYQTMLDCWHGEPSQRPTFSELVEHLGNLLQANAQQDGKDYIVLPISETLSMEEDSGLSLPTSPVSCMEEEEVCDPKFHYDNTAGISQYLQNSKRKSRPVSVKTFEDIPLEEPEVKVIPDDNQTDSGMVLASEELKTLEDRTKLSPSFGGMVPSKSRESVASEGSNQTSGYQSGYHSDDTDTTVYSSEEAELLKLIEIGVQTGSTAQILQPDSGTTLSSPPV
Chain of Angiopoietin-1 receptor (Q02763 whole entry): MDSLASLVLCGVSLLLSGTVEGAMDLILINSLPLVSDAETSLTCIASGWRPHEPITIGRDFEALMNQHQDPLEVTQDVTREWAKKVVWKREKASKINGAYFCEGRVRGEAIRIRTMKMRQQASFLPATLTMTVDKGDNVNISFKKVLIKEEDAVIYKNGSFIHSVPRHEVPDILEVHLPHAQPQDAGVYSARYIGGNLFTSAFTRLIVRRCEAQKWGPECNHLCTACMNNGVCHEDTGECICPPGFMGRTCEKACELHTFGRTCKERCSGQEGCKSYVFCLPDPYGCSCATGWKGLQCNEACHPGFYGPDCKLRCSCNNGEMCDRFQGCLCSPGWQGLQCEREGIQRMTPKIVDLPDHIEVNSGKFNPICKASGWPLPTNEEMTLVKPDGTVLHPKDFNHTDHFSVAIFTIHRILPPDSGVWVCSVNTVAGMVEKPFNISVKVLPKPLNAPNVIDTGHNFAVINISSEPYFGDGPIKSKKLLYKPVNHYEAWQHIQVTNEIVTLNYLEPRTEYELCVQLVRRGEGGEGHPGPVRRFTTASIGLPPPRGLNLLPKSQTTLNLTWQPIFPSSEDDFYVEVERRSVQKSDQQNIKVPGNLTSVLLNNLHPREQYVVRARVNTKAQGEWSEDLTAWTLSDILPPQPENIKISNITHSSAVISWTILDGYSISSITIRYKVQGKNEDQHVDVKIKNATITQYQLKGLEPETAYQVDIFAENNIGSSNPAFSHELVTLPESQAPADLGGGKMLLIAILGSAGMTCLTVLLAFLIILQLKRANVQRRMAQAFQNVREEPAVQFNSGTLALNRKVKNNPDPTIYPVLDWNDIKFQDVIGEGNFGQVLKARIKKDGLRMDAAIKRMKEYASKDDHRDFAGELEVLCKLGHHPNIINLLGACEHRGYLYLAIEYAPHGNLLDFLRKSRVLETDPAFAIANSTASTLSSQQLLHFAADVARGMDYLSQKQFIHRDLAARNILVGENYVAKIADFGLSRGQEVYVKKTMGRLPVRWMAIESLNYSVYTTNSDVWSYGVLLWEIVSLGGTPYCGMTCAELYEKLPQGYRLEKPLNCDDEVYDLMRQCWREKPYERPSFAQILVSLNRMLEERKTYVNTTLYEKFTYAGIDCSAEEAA
Chain of Tyrosine-protein kinase Lck (P06239 whole entry): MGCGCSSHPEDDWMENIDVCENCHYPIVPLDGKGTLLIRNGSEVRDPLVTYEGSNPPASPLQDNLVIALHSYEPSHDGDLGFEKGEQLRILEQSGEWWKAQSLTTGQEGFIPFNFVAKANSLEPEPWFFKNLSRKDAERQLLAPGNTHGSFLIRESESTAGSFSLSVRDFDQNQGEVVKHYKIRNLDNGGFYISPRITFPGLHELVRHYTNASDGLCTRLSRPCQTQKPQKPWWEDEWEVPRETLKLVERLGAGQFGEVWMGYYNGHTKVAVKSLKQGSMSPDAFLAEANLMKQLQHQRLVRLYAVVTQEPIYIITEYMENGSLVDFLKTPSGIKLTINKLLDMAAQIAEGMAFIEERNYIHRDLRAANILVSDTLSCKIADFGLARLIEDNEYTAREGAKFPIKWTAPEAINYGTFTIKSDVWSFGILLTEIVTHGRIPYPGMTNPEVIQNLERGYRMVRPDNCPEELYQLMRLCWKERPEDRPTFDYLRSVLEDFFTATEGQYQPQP
Chain of Ribosomal protein S6 kinase alpha-5 (O75582 whole entry): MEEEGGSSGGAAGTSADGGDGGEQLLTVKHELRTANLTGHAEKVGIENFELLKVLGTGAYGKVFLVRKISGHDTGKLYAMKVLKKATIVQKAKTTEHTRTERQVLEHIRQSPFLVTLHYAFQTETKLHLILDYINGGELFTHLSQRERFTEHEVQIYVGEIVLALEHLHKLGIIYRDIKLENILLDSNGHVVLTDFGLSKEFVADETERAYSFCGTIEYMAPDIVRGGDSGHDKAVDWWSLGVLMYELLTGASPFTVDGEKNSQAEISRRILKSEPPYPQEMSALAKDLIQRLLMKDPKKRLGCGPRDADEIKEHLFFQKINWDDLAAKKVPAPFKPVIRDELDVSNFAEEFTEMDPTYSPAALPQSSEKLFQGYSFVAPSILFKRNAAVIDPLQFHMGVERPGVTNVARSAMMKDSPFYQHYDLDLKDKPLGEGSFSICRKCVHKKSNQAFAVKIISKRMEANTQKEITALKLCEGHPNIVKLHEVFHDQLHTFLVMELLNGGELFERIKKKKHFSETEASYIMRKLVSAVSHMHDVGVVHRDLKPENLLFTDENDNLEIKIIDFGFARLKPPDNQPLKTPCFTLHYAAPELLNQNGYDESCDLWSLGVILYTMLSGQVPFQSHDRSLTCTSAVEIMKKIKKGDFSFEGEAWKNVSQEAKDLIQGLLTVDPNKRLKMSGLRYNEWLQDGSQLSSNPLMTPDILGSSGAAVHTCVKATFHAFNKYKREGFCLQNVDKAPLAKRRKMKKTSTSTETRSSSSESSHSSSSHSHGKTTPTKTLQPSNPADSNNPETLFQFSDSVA
Chain of Mitogen-activated protein kinase 3 (P27361 whole entry): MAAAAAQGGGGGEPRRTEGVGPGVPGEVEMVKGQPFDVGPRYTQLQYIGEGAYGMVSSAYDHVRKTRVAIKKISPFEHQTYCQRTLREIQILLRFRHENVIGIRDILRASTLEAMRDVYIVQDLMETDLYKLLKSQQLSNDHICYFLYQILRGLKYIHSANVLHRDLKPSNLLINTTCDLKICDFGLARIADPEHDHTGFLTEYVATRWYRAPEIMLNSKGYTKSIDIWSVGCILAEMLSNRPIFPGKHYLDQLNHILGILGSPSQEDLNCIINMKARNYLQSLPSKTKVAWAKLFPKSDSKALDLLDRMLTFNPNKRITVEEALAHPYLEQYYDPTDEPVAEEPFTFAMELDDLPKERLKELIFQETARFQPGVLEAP
Chain of Tyrosine-protein kinase Lyn (P07948 whole entry): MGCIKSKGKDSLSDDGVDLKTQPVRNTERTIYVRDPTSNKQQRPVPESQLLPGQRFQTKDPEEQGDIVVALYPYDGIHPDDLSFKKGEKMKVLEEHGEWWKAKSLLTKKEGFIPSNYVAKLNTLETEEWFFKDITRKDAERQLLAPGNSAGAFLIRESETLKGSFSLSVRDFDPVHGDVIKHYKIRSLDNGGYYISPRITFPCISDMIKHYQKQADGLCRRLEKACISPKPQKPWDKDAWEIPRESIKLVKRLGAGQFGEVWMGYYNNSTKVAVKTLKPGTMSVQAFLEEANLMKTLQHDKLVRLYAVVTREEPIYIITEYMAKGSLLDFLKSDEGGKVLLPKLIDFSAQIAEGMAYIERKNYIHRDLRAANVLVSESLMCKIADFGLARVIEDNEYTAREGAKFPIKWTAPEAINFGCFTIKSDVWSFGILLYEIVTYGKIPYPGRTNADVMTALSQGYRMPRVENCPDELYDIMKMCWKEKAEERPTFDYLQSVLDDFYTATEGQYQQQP

Structure (SMILES): Cc1ccc(NC(=O)c2cc(F)cc(C(F)(F)F)c2)cc1C(=O)Nc1cnc(Nc2ccc(N3CCN(C)CC3)cc2)nc1
- IC50 (Lymphocyte): 21 nM
- IC50 (Blood [1]): 1010 nM
- IC50 [2]: 0.3 nM
- Tmax [3]: 0.6 h
- IC50 [4]: 3 nM
- clearance [5]: 8.17 mL/min/kg
- IC50 (Blood [6]): 16 nM
- Vd [7]: 1.61 L/kg
- IC50 [8]: 17 nM
- half-life [9]: 3.8 h
- IC50 (Angiopoietin-1 receptor): 6080 nM
- Cmax [10]: 39 ng/mL
- AUC(0-inf) [11]: 332 ng·h/mL
- IC50 [12]: > 25000 nM
- bioavailability [13]: 8%
- fraction unbound [14]: 0.023
- fraction unbound [15]: 0.018

Structure (SMILES): Cc1ccc(NC(=O)c2cccc(C(F)(F)F)c2)cc1C(=O)Nc1cnc(N)nc1
- IC50 (Lymphocyte): 107 nM
- IC50 (Blood [1]): > 10000 nM
- IC50 (Blood [6]): 1270 nM
- IC50 [8]: 125 nM
- IC50 (Angiopoietin-1 receptor): > 25000 nM
- IC50 [12]: > 25000 nM

Structure (SMILES): C/C=C/C[C@@H](C)[C@@H](O)[C@H]1C(=O)N[C@@H](CC)C(=O)N(C)CC(=O)N(C)[C@@H](CC(C)C)C(=O)N[C@@H](C(C)C)C(=O)N(C)[C@@H](CC(C)C)C(=O)N[C@@H](C)C(=O)N[C@H](C)C(=O)N(C)[C@@H](CC(C)C)C(=O)N(C)[C@@H](CC(C)C)C(=O)N(C)[C@@H](C(C)C)C(=O)N1C [CYCLOSPORINE]
- ED50 (Mus musculus [16]): 10 mg/kg

Structure (SMILES): Cc1ccc(NC(=O)c2cccc(C(F)(F)F)c2)cc1C(=O)Nc1cnc(Nc2ccc(N3CCN(C)CC3)cc2)nc1
- concentration (Mus musculus [17]): 1540 nM
- IC50 [18]: > 25000 nM
- IC50 [19]: > 8300 nM
- IC50 [20]: > 5000 nM
- IC50 (Lymphocyte): 11 nM
- IC50 (Blood [1]): 718 nM
- inhibition in vivo at 30 mg/kg (Mus musculus [21]): 89%
- IC50 [22]: 2 nM
- IC50 [2]: 0.6 nM
- IC50 [23]: > 25000 nM
- Tmax [3]: 4.67 h
- IC50 [24]: 0.9 nM
- IC50 [25]: > 100000 nM
- IC50 [4]: 5 nM
- clearance [5]: 17.3 mL/min/kg
- IC50 (Blood [6]): 7 nM
- Vd [7]: 3.29 L/kg
- IC50 [26]: > 30000 nM
- IC50 [27]: 40 nM
- IC50 [28]: > 25000 nM
- IC50 (Jurkat): > 20000 nM
- IC50 [29]: > 25000 nM
- concentration (Mus musculus [30]): 434 nM
- IC50 [8]: 24 nM
- concentration (Mus musculus [31]): 176 nM
- IC50 [32]: > 85000 nM
- IC50 [33]: 3 nM
- EC50 unbound (Plasma): 4 nM
- half-life [9]: 3.2 h
- IC50 [34]: > 5000 nM
- IC50 [35]: > 5000 nM
- IC50 (Angiopoietin-1 receptor): 9950 nM
- Cmax [10]: 49 ng/mL
- ED50 (Mus musculus [36]): 9.4 mg/kg
- IC50 [37]: > 100000 nM
- AUC(0-inf) [11]: 419 ng·h/mL
- IC50 [38]: > 100000 nM
- IC50 [12]: > 25000 nM
- bioavailability [13]: 22%
- inhibition in vivo at 10 mg/kg (Mus musculus [39]): 53%
- IC50 [40]: 3 nM
- IC50 [41]: > 100000 nM
- inhibition in vivo at 100 mg/kg (Mus musculus [42]): 91%
- fraction unbound [14]: 0.006
- fraction unbound [15]: 0.022
- Activity (Mus musculus [16]): Active
- IC50 [43]: 4290 nM

Structure (SMILES): Cc1ccc(NC(=O)c2cccc(C(F)(F)F)c2C)cc1C(=O)Nc1cnc(Nc2ccc(N3CCN(C)CC3)cc2)nc1
- IC50 (Lymphocyte): 60 nM
- IC50 (Blood [1]): 1370 nM
- Tmax [3]: 2.75 h
- IC50 [4]: 12 nM
- clearance [5]: 48.7 mL/min/kg
- IC50 (Blood [6]): 2 nM
- Vd [7]: 5.45 L/kg
- IC50 [8]: 54 nM
- half-life [9]: 1.8 h
- IC50 (Angiopoietin-1 receptor): > 8300 nM
- Cmax [10]: 28 ng/mL
- AUC(0-inf) [11]: 92 ng·h/mL
- IC50 [12]: > 25000 nM
- bioavailability [13]: 7%
- fraction unbound [14]: 0.014
- fraction unbound [15]: 0.016
